Reference: patent EP1457483A1, “Cationic lipids with serine backbone” (Ruhr-Universität Bochum, priority 2003, dated 2004)

Key:
COS-7 cells = experiment: Automated lipofection screening: GFP-luciferase reporter gene transfer (luciferase activity per protein content); type: cell-based, African green monkey; settings: point is thousands separator; for Maximum transfection efficiency, MW (mean value), Helper lipid: DOPE / Maximum transfection efficiency, MW (mean value), Helper lipid: CHOL / Maximum transfection efficiency, MW (mean value), Helper lipid: without: pEGFPLuc plasmid; for Maximum transfection efficiency, MW (mean value), Helper lipid: DOPE: cationic/helper lipid 1:0.5 with DOPE; for Maximum transfection efficiency, MW (mean value), Helper lipid: DOPE / Maximum transfection efficiency, MW (mean value), Helper lipid: CHOL: at the LDR giving the maximum; for Maximum transfection efficiency, MW (mean value), Helper lipid: CHOL: cationic/helper lipid 1:0.5 with cholesterol; for Maximum transfection efficiency, MW (mean value), Helper lipid: without: no helper lipid, at the LDR (1:1-15:1) giving the maximum
Procedure: Screening the combinatorial lipid library for lipofection properties: Goal of this first step was to compare transfection efficiency of these structurally related cationic lipids with systematically modified hydrocarbon chain compositions for the development of suitable lipofection reagents and protocols and to study the relationship between structure and transfection efficiency of this new class of cationic lipids for gene transfer. All lipids (MS-1 to MS-50, table 1) were tested using a standard protocol: From each lipid, twenty four different lipoplexes were formed containing either no helper lipid or the helper lipids DOPE and CHOL at molar amounts (1:0.5), respectively, using eight different lipid:DNA-charge ratios (LDR) from 1:1 - 15:1, resulting in a lipofection profile for each lipid. The COS-7 cell-line was used for this lipofection study since COS-7 is easy to transfect and differences between the lipids are easy to identify.
Cell culture: SV40 transformed African green monkey kidney cell line COS-7 (ATCC CRL-1651) was routinely passaged in DMEM (GIBCO BRL, Karlsruhe, Germany), respectively, supplemented with 1% L-glutamin solution (100x), 1% Penicillin/Streptomycin solution (100x) (GIBCO BRL, Karlsruhe, Germany), and 10% FCS (BioWhittaker, Verviers, Belgium) at 37°C with 5% CO2 in humidified atmosphere. For the screening cells were maintained in 96-well culture plates (Greiner, Frickenhausen, Germany) in 100 µl DMEM, 10 % FCS, 1 % Penicillin-streptomycin in a humidified atmosphere at 37 °C/5 % CO2. 24 h prior to transfection, the cells were seeded into the microtiter plate at 10,000 cells per well to reach a confluency of 50 % at the time of transfection. Dendritic cells: Dendritic cells (DC) were derived from highly purified circulating CD14(+) monocytes: In a first step, peripheral blood mononuclear leukocytes (PBL) from healthy control persons were isolated by Ficoll-Paque (Pharmacia Biotech AB, Uppsala, Sweden) density centrifugation. The following immunomagnetic purification of the monocytes from PBL was performed using CD14 Microbeads and MiniMACS high gradient magnetic separation columns (Miltenyi Biotech, Bergisch Gladbach, Germany) according to manufacturer's instructions. Isolated monocytes (5 x 10^5/well) were cultured in RPMI supplemented with 10 % FCS, or serum-free Macrophage-SFM medium (GIBCO BRL, Karlsruhe, Germany) supplemented with human recombinant GM-CSF (0.05µg/ml) and IL-4 (0.025µg/ml) (PromoCell, Heidelberg, Germany) in 6-well plates. Aliquots of the cells were reanalyzed by FACS with anti-CD14 mAbs (Pharmingen, San Diego, CA). After 5-6 days non-adherent cells were collected and purity of DCs was determined by FACS analysis using a FACSort flow cytometer (Becton Dickinson, Mountain View, CA) and the CellQuest software for data processing as recently described (Jantscheff, P. et al., J. Immunol. Methods 163(1):91-7 (1993)).

primary dendritic cells = experiment: Transfection of primary dendritic cells with lipoplexes (luciferase activity per protein content); type: cell-based, human
Procedure: Cell culture: SV40 transformed African green monkey kidney cell line COS-7 (ATCC CRL-1651) was routinely passaged in DMEM (GIBCO BRL, Karlsruhe, Germany), respectively, supplemented with 1% L-glutamin solution (100x), 1% Penicillin/Streptomycin solution (100x) (GIBCO BRL, Karlsruhe, Germany), and 10% FCS (BioWhittaker, Verviers, Belgium) at 37°C with 5% CO2 in humidified atmosphere. For the screening cells were maintained in 96-well culture plates (Greiner, Frickenhausen, Germany) in 100 μl DMEM, 10 % FCS, 1 % Penicillin-streptomycin in a humidified atmosphere at 37 °C/5 % CO2. 24 h prior to transfection, the cells were seeded into the microtiter plate at 10,000 cells per well to reach a confluency of 50 % at the time of transfection. […] After 5-6 days non-adherent cells were collected and purity of DCs was determined by FACS analysis using a FACSort flow cytometer (Becton Dickinson, Mountain View, CA) and the CellQuest software for data processing as recently described (Jantscheff, P. et al., J. Immunol. Methods 163(1):91-7 (1993)). […] Binding specificity was determined using IgG1 (MOPC-21), IgG2a (UPC-10), or IgG2b (MOPC-141) isotype control mAbs (SIGMA-ALDRICH Chemie, Buchs, Switzerland). […]

Structure (SMILES) | transfection efficiency (DOTAP values) (COS-7 cells; best lipid/DNA charge ratio of 2.5, determined in each run) [RLU] | Transfection efficiencies, RLU (primary dendritic cells; helper lipid 1:0.5 at optimum lipid:DNA ratio, ± standard deviation (lu µg^-1 protein)) [RLU] | % DOTAP (primary dendritic cells; standardized on lipofection efficiency of DOTAP-lipoplexes set to 100%) [%] | Maximum transfection efficiency, MW (mean value), Helper lipid: DOPE (COS-7 cells) [RLU] | Maximum transfection efficiency, MW (mean value), Helper lipid: CHOL (COS-7 cells) [RLU] | Maximum transfection efficiency, MW (mean value), Helper lipid: without (COS-7 cells) [RLU]
CCCCCCCC/C=C\CCCCCCCC(=O)OCC(C[N+](C)(C)C)OC(=O)CCCCCCC/C=C\CCCCCCCC (stereo not drawn) [DOTAP, N-[1-(2,3-dioleoyloxy)propyl]-N,N,N-trimethylammonium methylsulfate] | 30.838 ± 6.363 | 235 ± 119 | 100 |  |  | 
CCCCCCCC/C=C\CCCCCCCC[N+](C)(CCCCCCCC/C=C\CCCCCCCC)[C@@H](CO)C(=O)NCCCN [compound 35] |  |  |  | 43.284 | 56.949 | 34.736
CCCCCCCCCCCCCCN(CCCCCCCCCCCCCC)[C@@H](CO)C(=O)NCCCN [compound 7] |  |  |  | 131.970 | 464.342 | 217.062
CCCCCCCCCCCCCCCCN(CCCCCCCCCCCCCCCC)[C@@H](CO)C(=O)NCCCCCN [compound 18] |  |  |  | 26.400 | 42.592 | 22.150
CCCCCCCCCCCCCC[N+](C)(CCCCCCCCCCCCCC)[C@@H](CO)C(=O)NCCCCN [compound 37] |  |  |  | 63.765 | 148.560 | 1.972
